Test results: patent US8980226B2, “Aerosolized fosfomycin/aminoglycoside combination for the treatment of bacterial respiratory infections” (Gilead Sciences, Inc., priority 2004, dated 2015)

What was measured:
[1] = in vivo; cited from earlier work
[2] = tested on: susceptible P. aeruginosa; settings: typical values, literature; cited from earlier work
[3] = in vivo; cited from earlier work; remark: listed apart in the source
E. coli ATCC 25922 = assay: Animal efficacy, rat lung infection, aerosol administration; assay type: in vivo; settings: aerosol administration of a 40 mg/mL solution of tobramycin alone (FIG. 18)
Procedure: The in vivo efficacy of aerosolized fosfomycin alone, tobramycin alone and combinations of fosfomycin plus tobramycin were evaluated against E. coli ATCC 25922 and P. aeruginosa ATCC 27853 in rat lungs. The bacterial inoculum used to establish the rat lung infections consisted of a mixture of bacteria and agarose beads. E. coli ATCC 25922 or P. aeruginosa ATCC 27853 was streaked onto blood agar plates and incubated for 18-24 hours at 35° C. Two to three colonies were inoculated into 10 mL Tryptic Soy Broth (hereafter referred to as TSB) and incubated statically at 35° C. for 1.5 to 2 hours. The culture was adjusted to an optical density of 0.1 (625 nm) in fresh TSB and then diluted 1:5 in TSB. One milliliter of bacterial suspension (approximately 10^7 CFU/mL) was added to 10 mL of a 2% noble agar solution and briefly mixed by inversion. The mixture was added to 150 mL of heavy white mineral oil equilibrated to 55° C. and stirred on ice for 5 minutes. The cooled suspension was poured into a 250 mL centrifuge tube and centrifuged at 3,000 rpm, 4° C., for 10 minutes. The supernatant was decanted off, the pellet resuspended in 25 mL of normal sterile saline, and transferred to a 50 mL conical centrifuge tube. […]
Bacterial killing was evaluated 18 hours after the last exposure. […] The lungs were removed aseptically, excess tissue removed and the lung weight determined. […]

Row | SMILES | concentrations in normal lung [1] [ng/mL] | peak serum concentrations [1] [µg/mL] | time of peak serum concentrations [1] [h] | MICs of susceptible P. aeruginosa [2] | prevalence of nephrotoxicity [3] | killing of E. coli in the rat lung (E. coli ATCC 25922) [log 10]
1 | C[C@@H]1O[C@@H]1P(=O)(O)O [Fosfomycin] | 1000 to 13000 | 25 to 95 | 1 to 2 |  |  | 
2 | NC[C@H]1O[C@H](O[C@H]2[C@H](O)[C@@H](O[C@H]3O[C@H](CO)[C@@H](O)[C@H](N)[C@H]3O)[C@H](N)C[C@@H]2N)[C@H](N)C[C@@H]1O [Tobramycin] |  |  |  | less than 2 μg/mL | 31-42% | 2
